# Measurements as given in patent US11253540B2, “Composition including glycosaminoglycan derivative and chemokine receptor activity regulator” (Seikagaku Corporation, priority 2015, dated 2022).
# How the values were obtained:
# laser-induced CNV [1] = experiment: Laser-induced CNV models of rat: CNV area, flat mounts prepared 4 days after preparation of models; type: in vivo; design: key to Test results, CNV area vs. CS, t-test: N.S.: Not Significant (vs. CS), t-test; details: Test Example 19; for CNV area, mean: 5 μL/eye intravitreal once, flat mounts after 4 days, Compound 3 10 mg/ml in PBS, CS (about 40,000) 10 mg/mL in PBS
# Protocol: BN/CrlCrlj rats (male, CHARLES RIVER LABORATORIES JAPAN, INC.) were used for the preparation of animal models. Under general anesthesia by intraperitoneal administration of an anesthetic mixture (saline:Somnopentyl=9:1) (about 2 mL/body), Mydrin-P ophthalmic solution was topically instilled to cause mydriasis in both eyes. The retina around the optic disk was irradiated with a laser beam to induce CNV. Used for the laser beam irradiation were SCOPISOL solution for eye, Fundus 5.4 mm Laser Lens, a laser photocoagulation device and a slit lamp illumination system. Immediately after the laser beam irradiation, 5 μL/eye of the test substance was administered once into the vitreous bodies of both eyes. Immediately after the administration, one drop of an antimicrobial drug (VEGAMOX Ophthalmic Solution 0.5%) was instilled.
# After 10 days from the preparation, the models were euthanized with CO2. The eyeballs were extracted and immersed in 10% neutral buffered solution of formalin (room temperature, about 60 minutes). Eye cups were prepared, washed with PBS, dehydrated with methanol and immersed in PBS containing 1% bovine serum albumin and 0.5% Triton X-100 (room temperature, about 60 minutes). The retina was removed, and 60 μL of 0.5% fluorescein Griffonia simplicifolia lectin I, FITC-conjugate was added to the eye cups, and the eye cups were allowed to stand (under refrigeration, overnight). By this treatment, vascular endothelial cells of CNV were fluorescently stained with FITC-lectin. Eight slits were made radially in each of the eye cups to thereby obtain flat mounts. These flat mounts were washed twice with PBS containing 0.1% Triton X-100 and embedded on a glass slide with about 120 μL of Prolong Gold Antifade Reagent.
# A fluorescence image of CNV in the flat mount embedded on a glass slide was taken with a fluorescent microscope. The area of CNV was measured using an image processing software (Image pro exp).
# Laser-induced CNV models of rat were prepared, and neovascularization inhibitory effect was examined with respect to intravitreal administration of Compound 3.
# Substantially the same procedure as in ? Method ? for Test Example 1 was repeated, except that flat mounts were prepared 4 days after the preparation of models, instead of 10 days after the preparation of models in Test Example 1.
# The areas of CNV in each group were analyzed by a test (t-test) for unpaired two groups. The significance level was 5% on both sides.
# laser-induced CNV [2] = experiment: Laser-induced CNV models of rat: CNV area in flat mounts 10 days after intravitreal administration; type: in vivo; design: key to Test results, CNV area vs. DMSO, t-test: **: P < 0.01 (vs. DMSO), t-test; #: P < 0.05 (vs. Ki19003), t-test; N.S.: Not Significant (vs. DMSO), t-test; key to Test results, CNV area vs. DMSO, Dunnett's test: *: P < 0.05 (vs. DMSO), Dunnett's test; N.S.: Not Significant (vs. DMSO), Dunnett's test; #: P < 0.05; ##: P < 0.01 (vs. GW766994), Dunnett's test; key to Test results, CNV area vs. PBS, t-test: *: P < 0.05 (vs. PBS), t-test; N.S.: Not Significant (vs. PBS), t-test; CNV area, mean: unit not given here; details: for CNV area, mean: 5 μL/eye intravitreal once, 10 days
# Protocol: Laser-induced CNV models of rat were prepared, and neovascularization inhibitory effect was examined with respect to intravitreal administration of Composition 10 or Ki19003. BN/CrlCrlj rats (male, CHARLES RIVER LABORATORIES JAPAN, INC.) were used for the preparation of animal models. […] The retina around the optic disk was irradiated with a laser beam to induce CNV. Used for the laser beam irradiation were SCOPISOL solution for eye, Fundus 5.4 mm Laser Lens, a laser photocoagulation device and a slit lamp illumination system. Immediately after the laser beam irradiation, 5 μL/eye of the test substance was administered once into the vitreous bodies of both eyes. Immediately after the administration, one drop of an antimicrobial drug ([…] Ophthalmic Solution 0.5%) was instilled. After 10 days from the preparation, the models were euthanized with CO2. The eyeballs were extracted and immersed in 10% neutral buffered solution of formalin (room temperature, about 60 minutes). Eye cups were prepared, washed with PBS, dehydrated with methanol and immersed in PBS containing 1% bovine serum albumin and 0.5% Triton X-100 (room temperature, about 60 minutes). The retina was removed, and 60 μL of 0.5% fluorescein Griffonia simplicifolia lectin I, FITC-conjugate was added to the eye cups, and the eye cups were allowed to stand (under refrigeration, overnight). By this treatment, vascular endothelial cells of CNV were fluorescently stained with FITC-lectin. Eight slits were made radially in each of the eye cups to thereby obtain flat mounts. These flat mounts were washed twice with PBS containing 0.1% Triton X-100 and embedded on a glass slide with about 120 μL of Prolong Gold Antifade Reagent. A fluorescence image of CNV in the flat mount embedded on a glass slide was taken with a fluorescent microscope. The area of CNV was measured using an image processing software (Image pro exp). The areas of CNV in each group were analyzed by a test (t-test) for unpaired two groups. The significance level was 5% on both sides.
# laser-induced CNV [3] = details: intravitreal administration, laser-induced CNV model of mouse; cited from earlier work
compound,measurement,setting,value
5β-Cholanic Acid-Introduced CS [Compound 3],"Test results, CNV area vs. CS, t-test",laser-induced CNV [1],N.S.
same,"inhibitory effects of CNV, as compared to CS",laser-induced CNV [1],did not show significant inhibitory effects of CNV
same,"CNV area, mean",laser-induced CNV [1],51925
Cc1ccc(S(=O)(=O)NC(=O)N2CCC(N3CCC(Oc4ccc(Cl)c(Cl)c4)CC3)CC2)cc1 [AZD3778],"Test results, CNV area vs. DMSO, t-test",laser-induced CNV [2]; Test Example 8,N.S.
same,"CNV area, mean","laser-induced CNV [2]; Test Example 8, Composition 35 containing 0.1 mg/mL of AZD3778, AZD3778 0.1 mg/mL in DMSO",43935
NC(=O)c1ccc(CNC(=O)NC[C@H]2CN(Cc3ccc(Cl)c(Cl)c3)CCO2)cc1 [GW766994],"inhibitory effects of CNV, as compared to DMSO","laser-induced CNV [2]; GW766994 dissolved in DMSO, 2 mg/mL and 1.5 mg/mL (Test Examples 6 and 10), both concentrations",did not have inhibitory effects of CNV
same,"Test results, CNV area vs. DMSO, t-test",laser-induced CNV [2]; Test Example 6,N.S.
same,"CNV area, mean","laser-induced CNV [2]; Test Example 6, Composition 33 containing 2 mg/mL of GW766994, GW766994 2 mg/mL in DMSO",41548
same,"Test results, CNV area vs. DMSO, Dunnett's test",laser-induced CNV [2]; Test Example 10,N.S.
same,"CNV area, mean","laser-induced CNV [2]; Test Example 10, Composition 6 containing 0.71, Composition 7 0.83 mg/mL of GW766994, GW766994 1.5 mg/mL in DMSO",30795
NC(N)=NCCC[C@H](NC(=O)[C@@H]1Cc2ccccc2CN1C(=O)CCC(=O)c1ccccc1)C(=O)NCC1CCCCC1 [PS372424],"CNV area, mean","laser-induced CNV [2]; Test Example 15, Composition 38 containing 0.091 mg/mL of PS372424, PS372424 0.1 mg/mL in DMSO",36842
Cc1ccc2c(c1)C1(CCN(CCc3nc(-c4ccccc4)oc3C)CC1)OC(=O)N2 [RS504393],"Test results, CNV area vs. DMSO, t-test",laser-induced CNV [2]; Test Example 14,N.S.
same,"CNV area, mean","laser-induced CNV [2]; Test Example 14, Composition 37 containing 0.01 mg/mL of RS504393, RS504393 0.01 mg/mL in DMSO",44137
O=C(Nc1ccc([N+](=O)[O-])cc1O)Nc1ccccc1Br [SB225002],"Test results, CNV area vs. DMSO, t-test",laser-induced CNV [2]; Test Example 5,N.S.
same,"CNV area, mean","laser-induced CNV [2]; Test Example 5, Composition 31 containing 0.018, Composition 32 0.02 mg/mL of SB225002, SB225002 0.02 mg/mL in DMSO",43121
COC(=O)[C@H](Cc1ccc([N+](=O)[O-])cc1)NC(=O)c1cccc2ccccc12 [SB328437],"CNV area, mean","laser-induced CNV [2]; Test Example 4, Compositions 14, 15, 16 containing 1.33, 1.67, 3.33 mg/mL of SB328437, SB328437 2 mg/mL in DMSO",26040
same,"Test results, CNV area vs. DMSO, t-test",laser-induced CNV [2]; Test Example 9,* (P < 0.05)
same,"CNV area, mean","laser-induced CNV [2]; Test Example 9, Composition 36 containing 1 mg/mL of SB328437, SB328437 1 mg/mL in DMSO",38911
chondroitin sulfate [CS],"Test results, CNV area vs. PBS, t-test",laser-induced CNV [2]; Test Example 18,N.S.
same,"CNV area, mean","laser-induced CNV [2]; Test Example 18, CS (average molecular weight about 140,000) 20 mg/mL in PBS",30462
same,"inhibitory effects of CNV, as compared to PBS","laser-induced CNV [2]; Test Example 18, CS 20 mg/mL",did not show significant inhibitory effects of CNV
same,"CNV area, mean",laser-induced CNV [1],50236
heparan sulfate,suppression of CNV,laser-induced CNV [3],suppressed CNV
heparin,suppression of CNV,laser-induced CNV [3],suppressed CNV
